The IC50 is the concentration needed to halve the response being measured.

SMILES strings stand for the structures. *1 amine or outer side, *2 acyl side, *3 side chain or, on linkers, in order; H or OH if unused. Where a SMILES comes first, the peptide text is derived from it. Bridges are numbered along the chain shown (N, C = ends). [ ]: non-standard residue; d: D form. The star is where a group is joined. ξ: configuration not given here. X10 = O=C(O)COc1ccc(C[C@H](CC(=O)C[*:2])C(=O)[*:1])cc1; Phe(3-CF3) = N[C@@H](Cc1cccc(C(F)(F)F)c1)C(=O)O; Phe(4-CONH2) = NC(=O)c1ccc(C[C@H](N)C(=O)O)cc1; Phe(4-COOH) = N[C@@H](Cc1ccc(C(=O)O)cc1)C(=O)O; Bip = N[C@@H](Cc1ccc(-c2ccccc2)cc1)C(=O)O; Phe(3-Me) = Cc1cccc(C[C@H](N)C(=O)O)c1; γGlu = O=C(O)[C@H](CCC(=O)[*:2])N[*:1]; NH(CH2)12COOH = O=C(O)CCCCCCCCCCCCN*; Val(3-OH) = CC(C)(O)[C@H](N)C(=O)O; NHhexadecyl = CCCCCCCCCCCCCCCCN*; Aad = N[C@@H](CCCC(=O)O)C(=O)O; Cha = N[C@@H](CC1CCCCC1)C(=O)O; Cit = NC(=O)NCCC[C@H](N)C(=O)O; Ile(3ξ) = CCC(C)[C@H](N)C(=O)O; Thr(3ξ) = CC(O)[C@H](N)C(=O)O; Carboxymethyl = O=C(O)C*; NMeA = CN[C@@H](C)C(=O)O; Orn = NCCC[C@H](N)C(=O)O; Aun = NCCCCCCCCCCC(=O)O; Dab = NCC[C@H](N)C(=O)O; Dap = NC[C@H](N)C(=O)O; AEEA = NCCOCCOCC(=O)O

T1 sequence (Q15116 25-288): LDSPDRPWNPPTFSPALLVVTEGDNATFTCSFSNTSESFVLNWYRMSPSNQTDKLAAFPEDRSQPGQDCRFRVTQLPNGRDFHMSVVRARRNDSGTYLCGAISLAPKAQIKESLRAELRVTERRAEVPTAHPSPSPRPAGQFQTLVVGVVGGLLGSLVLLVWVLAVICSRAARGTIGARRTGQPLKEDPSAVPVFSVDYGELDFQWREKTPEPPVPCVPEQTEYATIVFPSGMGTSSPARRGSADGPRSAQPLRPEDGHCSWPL

One experiment addresses T1, PD-1/PD-L1 interaction (PE-labeled human PD-L1-Ig binding to Jurkat cell line over-expressing human PD-1) (Homo sapiens, UniProt Q15116).
T1 construct: expressed in transfected cells; host or cells: Jurkat
Briefly: Jurkat-PD-1 Cell Binding High-Content Screening Assay (CBA). Conditions: Jurkat-hPD-1 cells, PE-labeled PD-L1-Ig 20 nM final; read-out: Jurkat HPD1 PDL1 IC50. A digest of the protocol:
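Cells 8×10^3/well, DMEM + 10% FCS; cpd 2 h, 37 °C; PE–PD-L1-Ig 20 nM final, 1 h; PFA fix + Hoechst 33342, 3× dPBS wash; high-content imager.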
In the case of `Cc1cccc(C[C@@H]2NC(=O)[C@H](CC(=O)O)NC(=O)[C@H](Cc3ccc(C(=O)O)cc3)NC(=O)[C@H](Cc3ccc(OCC(=O)O)cc3)NC(=O)CSC[C@@H](C(=O)NCC(=O)N[C@@H](CC(=O)O)C(=O)NCCOCCOCC(=O)N[C@@H](CCC(=O)NCCOCCOCC(=O)NCCCCCCCCCCC(=O)O)C(=O)O)NC(=O)[C@H](CO)NC(=O)[C@H](C(C)C)NC(=O)[C@H](CC(C)C)NC(=O)[C@H](CC(N)=O)NC(=O)[C@@H](CC(C)C)NC(=O)[C@H](C)N(C)C(=O)[C@H](C(C)C)NC(=O)[C@H](Cc3ccc(-c4ccccc4)cc3)NC(=O)[C@H](CC(C)C)NC2=O)c1` [Example 1019] ({CH2CO}-Y(Carboxymethyl)[Phe(4-COOH)]D[Phe(3-Me)]L[Bip]V[NMeA][dL]NLVSCGD[AEEA][γGlu][AEEA][Aun]-OH; thioether N-14), the IC50 came out at 58.5 nM.

Turning to `CC(C)C[C@H]1NC(=O)[C@H](C)N(C)C(=O)[C@H](CCCNC(N)=O)NC(=O)[C@H](Cc2ccc(-c3ccccc3)cc2)NC(=O)[C@H](Cc2ccc(C(=O)O)cc2)NC(=O)[C@H](Cc2cccc(C(F)(F)F)c2)NC(=O)[C@H](CC(=O)O)NC(=O)[C@H](Cc2ccc(OCC(=O)O)cc2)NC(=O)[C@H](Cc2ccc(C(=O)O)cc2)NC(=O)CSC[C@@H](C(=O)N[C@@H](CCN)C(=O)NCCOCCOCC(=O)N[C@@H](CCC(=O)NCCOCCOCC(=O)NCCCCCCCCCCCCC(=O)O)C(=O)O)NC(=O)[C@H](CCC(=O)O)NC(=O)[C@H](C(C)C)NC(=O)[C@H](CC2CCCCC2)NC(=O)[C@H](CCN)NC1=O` [Example 1158] ({CH2CO}-[Phe(4-COOH)]Y(Carboxymethyl)D[Phe(3-CF3)][Phe(4-COOH)][Bip][Cit][NMeA][dL][Dab][Cha]VEC[Dab][AEEA][γGlu][AEEA]-{NH(CH2)12COOH}; thioether N-14), the IC50 is 50.3 nM.

Regarding `CC(=O)NCCCC[C@@H]1NC(=O)[C@H](Cc2ccc(-c3ccccc3)cc2)NC(=O)[C@H](C(C)C)NC(=O)[C@H](Cc2cccc(C)c2)NC(=O)[C@H](CC(=O)O)NC(=O)[C@H](Cc2ccc(OCC(=O)O)cc2)NC(=O)[C@H](CCCNC(=N)N)NC(=O)CSC[C@@H](C(=O)NCCOCCOCC(=O)NCCCCCCCCCCC(=O)O)NC(=O)[C@H](C(C)O)NC(=O)[C@H](C(C)C)NC(=O)[C@H](CC2CCCCC2)NC(=O)[C@H](CCN)NC(=O)[C@@H](CC(C)C)NC(=O)[C@H](C)N(C)C1=O` (stereo partly drawn) [Example 2289] ({CH2CO}-RY(Carboxymethyl)D[Phe(3-Me)]V[Bip]K(Ac)[NMeA][dL][Dab][Cha]V[Thr(3ξ)]C[AEEA][Aun]-OH; thioether N-14), the IC50 was 7.5 nM.

`CC(C)C[C@@H]1NC(=O)[C@H](Cc2c[nH]c3ccccc23)NC(=O)[C@H](CC(=O)O)NC(=O)[C@H](Cc2ccc(C(=O)O)cc2)NC(=O)[C@H](Cc2ccc(OCC(=O)O)cc2)NC(=O)CSC[C@@H](C(=O)N[C@@H](CCCN)C(=O)NCCOCCOCC(=O)NCCCCCCCCCCC(=O)O)NC(=O)[C@H](CCCC(=O)O)NC(=O)[C@H](C(C)C)NC(=O)[C@H](CC2CCCCC2)NC(=O)[C@H](CCN)NC(=O)[C@@H](CC(C)C)NC(=O)[C@H](C)N(C)C(=O)[C@H](C(C)C)NC(=O)[C@H](Cc2ccc(-c3ccccc3)cc2)NC1=O` [Example 2153] ({CH2CO}-Y(Carboxymethyl)[Phe(4-COOH)]DWL[Bip]V[NMeA][dL][Dab][Cha]V[Aad]C[Orn][AEEA][Aun]-OH; thioether N-14): the IC50 is 16.7 nM.

As for `COC[C@@H]1NC(=O)CSC[C@@H](C(=O)N[C@@H](CCN)C(=O)NCCCCCCCCCCCCC(=O)O)NC(=O)[C@H](CO)NC(=O)[C@H](C(C)(C)O)NC(=O)[C@H](CC2CCCCC2)NC(=O)[C@H](CCN)NC(=O)[C@@H](CC(C)C)NC(=O)[C@H](C)N(C)C(=O)[C@H](CCC(N)=O)NC(=O)[C@H](Cc2ccc(-c3ccccc3)cc2)NC(=O)[C@H](Cc2ccc(C(=O)O)cc2)NC(=O)[C@H](Cc2cccc(C(F)(F)F)c2)NC(=O)[C@H](CC(=O)O)NC(=O)[C@H](Cc2ccc(OCC(=O)O)cc2)NC1=O` [Example 1136] ({CH2CO}-S(Me)Y(Carboxymethyl)D[Phe(3-CF3)][Phe(4-COOH)][Bip]Q[NMeA][dL][Dab][Cha][Val(3-OH)]SC[Dab]-{NH(CH2)12COOH}; thioether N-14), the IC50 is 18.1 nM.

`CCC(C)[C@@H]1NC(=O)[C@H](Cc2ccc(-c3ccccc3)cc2)NC(=O)[C@H](C(C)C)NC(=O)[C@H](Cc2c[nH]c3ccccc23)NC(=O)[C@H](CC(=O)O)NC(=O)[C@H](Cc2ccc(OCC(=O)O)cc2)NC(=O)[C@H](Cc2ccc(OCC(=O)O)cc2)NC(=O)CSC[C@@H](C(=O)N[C@H](CC(N)=O)C(=O)NCCCCCCCCCCC(=O)O)NC(=O)[C@H](CCCNC(N)=O)NC(=O)[C@H](C(C)C)NC(=O)[C@H](CC2CCCCC2)NC(=O)[C@H](CCN)NC(=O)[C@@H](CC(C)C)NC(=O)[C@H](C)N(C)C1=O` (stereo partly drawn) [Example 2297] ({CH2CO}-Y(Carboxymethyl)Y(Carboxymethyl)DWV[Bip][Ile(3ξ)][NMeA][dL][Dab][Cha]V[Cit]C[dN][Aun]-OH; thioether N-14): the IC50 was 8.5 nM.

As to `Cc1cccc(C[C@@H]2NC(=O)[C@H](CC(=O)O)NC(=O)[C@H](Cc3ccc(C(=O)O)cc3)NC(=O)[C@H](Cc3ccc(OCC(=O)O)cc3)NC(=O)CSC[C@@H](C(=O)NCC(=O)N[C@@H](CCC(=O)NCCOCCOCC(=O)N[C@@H](CC(=O)O)C(=O)NCCCCCCCCCCC(=O)O)C(=O)O)NC(=O)[C@H](CO)NC(=O)[C@H](C(C)C)NC(=O)[C@H](CC(C)C)NC(=O)[C@H](CC(N)=O)NC(=O)[C@@H](CC(C)C)NC(=O)[C@H](C)N(C)C(=O)[C@H](C(C)C)NC(=O)[C@H](Cc3ccc(-c4ccccc4)cc3)NC(=O)[C@H](CC(C)C)NC2=O)c1` [Example 1014] ({CH2CO}-Y(Carboxymethyl)[Phe(4-COOH)]D[Phe(3-Me)]L[Bip]V[NMeA][dL]NLVSCG[γGlu][AEEA]D[Aun]-OH; thioether N-14), the IC50 turned out to be 48.5 nM.

As for `CC(C)C[C@@H]1NC(=O)[C@H](Cc2c[nH]c3ccccc23)NC(=O)[C@H](CC(=O)O)NC(=O)[C@H](Cc2ccc(OCC(=O)O)cc2)NC(=O)[C@H](Cc2ccccc2)NC(=O)CSC[C@@H](C(=O)N[C@@H](CCCCN)C(=O)NCCCCCCCCCCC(=O)O)NC(=O)[C@H](CN)NC(=O)[C@H](C(C)C)NC(=O)[C@H](CC(C)C)NC(=O)[C@H](CC(N)=O)NC(=O)[C@@H](CC(C)C)NC(=O)[C@H](C)N(C)C(=O)[C@H](C(C)C)NC(=O)[C@H](Cc2ccc(-c3ccccc3)cc2)NC1=O` [Example 1350] ({CH2CO}-FY(Carboxymethyl)DWL[Bip]V[NMeA][dL]NLV[Dap]CK[Aun]-OH; thioether N-14), the IC50 stood at 119 nM.

For the compound `CCC(C)[C@@H]1NC(=O)[C@H](Cc2ccc(-c3ccccc3)cc2)NC(=O)[C@H](C(C)C)NC(=O)[C@H](Cc2c[nH]c3ccccc23)NC(=O)[C@H](CC(=O)O)NC(=O)[C@H](Cc2ccc(OCC(=O)O)cc2)NC(=O)[C@H](C(C)O)NC(=O)CSC[C@@H](C(=O)N[C@H](CC(N)=O)C(=O)NCCCCCCCCCCC(=O)O)NC(=O)[C@H](CCCCN)NC(=O)[C@H](C(C)C)NC(=O)[C@H](CC2CCCCC2)NC(=O)[C@H](CCN)NC(=O)[C@@H](CC(C)C)NC(=O)[C@H](C)N(C)C1=O` (stereo partly drawn) [Example 2210] ({CH2CO}-[Thr(3ξ)]Y(Carboxymethyl)DWV[Bip][Ile(3ξ)][NMeA][dL][Dab][Cha]VKC[dN][Aun]-OH; thioether N-14), the IC50 is 10 nM.

Staying with this experiment, now noted: PE-labeled PD-L1-Ig 20 nM final, Jurkat-hPD-1 cells; read-out: Jurkat HPD1 PDL1 IC50.
Turning to `CC(C)C[C@@H]1NC(=O)[C@H](Cc2c[nH]c3ccccc23)NC(=O)[C@H](CC(=O)O)NC(=O)[C@H](Cc2ccc(OCC(=O)O)cc2)NC(=O)[C@H](Cc2ccc(OCC(=O)O)cc2)NC(=O)CSC[C@@H](C(=O)N[C@@H](CCN)C(=O)NCCOCCOCC(=O)NCCCCCCCCCCC(=O)O)NC(=O)[C@H](CCC(=O)O)NC(=O)[C@H](C(C)(C)O)NC(=O)[C@H](CC2CCCCC2)NC(=O)[C@H](CCN)NC(=O)[C@@H](CC(C)C)NC(=O)[C@H](C)N(C)C(=O)[C@H](CCC(N)=O)NC(=O)[C@H](Cc2ccc(-c3ccccc3)cc2)NC1=O` [Example 2516] ({CH2CO}-Y(Carboxymethyl)Y(Carboxymethyl)DWL[Bip]Q[NMeA][dL][Dab][Cha][Val(3-OH)]EC[Dab][AEEA][Aun]-OH; thioether N-14), the IC50 worked out at 20.7 nM.

Take `CCCCCCCCCCCCCCCCNC(=O)CC[C@H](NC(=O)COCCOCCNC(=O)[C@H](CCN)NC(=O)[C@@H]1CSCC(=O)C[C@@H](Cc2ccc(OCC(=O)O)cc2)C(=O)N[C@@H](Cc2ccc(OCC(=O)O)cc2)C(=O)N[C@@H](CC(=O)O)C(=O)N[C@@H](Cc2cccc(C(F)(F)F)c2)C(=O)N[C@@H](Cc2ccc(C(=O)O)cc2)C(=O)N[C@@H](Cc2ccc(-c3ccccc3)cc2)C(=O)N[C@@H](CCC(N)=O)C(=O)N(C)[C@@H](C)C(=O)N[C@H](CC(C)C)C(=O)N[C@@H](CCN)C(=O)N[C@@H](CC2CCCCC2)C(=O)N[C@@H](C(C)(C)O)C(=O)N[C@@H](CCCCNC(C)=O)C(=O)N1)C(=O)O` [Example 2641] (Y(Carboxymethyl)D[Phe(3-CF3)][Phe(4-COOH)][Bip]Q[NMeA][dL][Dab][Cha][Val(3-OH)]K(Ac)C[Dab][AEEA]E(NHhexadecyl)-OH; linker N-13 via X10): the IC50 came to 38.9 nM.

As for `CC(=O)NCCCC[C@@H]1NC(=O)[C@H](C(C)(C)O)NC(=O)[C@H](CC2CCCCC2)NC(=O)[C@H](CCN)NC(=O)[C@@H](CC(C)C)NC(=O)[C@H](C)N(C)C(=O)[C@H](CCC(=O)O)NC(=O)[C@H](Cc2ccc(-c3ccccc3)cc2)NC(=O)[C@H](Cc2ccc(C(N)=O)cc2)NC(=O)[C@H](Cc2cccc(C)c2)NC(=O)[C@H](CC(=O)O)NC(=O)[C@H](Cc2ccc(C(=O)O)cc2)NC(=O)[C@H](Cc2ccc(OCC(=O)O)cc2)NC(=O)CSC[C@@H](C(=O)N[C@@H](CCN)C(=O)NCCOCCOCC(=O)NCCOCCOCC(=O)NCCCCCCCCCCC(=O)O)NC1=O` [Example 2533] ({CH2CO}-Y(Carboxymethyl)[Phe(4-COOH)]D[Phe(3-Me)][Phe(4-CONH2)][Bip]E[NMeA][dL][Dab][Cha][Val(3-OH)]K(Ac)C[Dab][AEEA][AEEA][Aun]-OH; thioether N-14), the IC50 came out at 2.3 nM.

Source of the values: patent US20260070945A1, “MACROCYCLIC IMMUNOMODULATORS” (Bristol-Myers Squibb Company, priority 2022, published 2026).
